Reference: article PMC12687421, “Characterisation of an allosteric site in PLCγ enzymes and implications for development of their specific inhibitors” (Biochemical Journal, 2025)

Assays:
PLCγ2^wt = assay: PLC activity assay 1 (A1), PLCγ2; assay type: biochemical, human; details: assay using liposomes (A1)
Experimental: The effect of nucleotide inhibition on PLC activity was measured using either a membrane-based assay with the fluorescent substrate (XY-69) incorporated into liposomes or using a small soluble substrate, Aldol 518 myo-inositol-1-phosphate (Aldol). Both methods utilised the same PLC assay buffer [20 mM Hepes-KOH, 70 mM KCl, 3 mM EGTA, 2.97 mM CaCl2, 2 mM TCEP and fatty acid-free bovine serum albumin (FAF-BSA; 50 μg/ml) (pH 7.5)]. Both assays were performed in low volume black 384-well plates (Greiner Bio-One), were composed of a final assay volume of 20 μl and were monitored in a Clariostar plate reader (BMG Labtech). The Aldol assay consisted of 4 μl of a serial dilution of ATP/ADP in assay buffer, 8 μl of PLC protein (concentration varied between PLC variants), and 8 μl of Aldol 518 myo-inositol-1-phosphate (final concentration in assay, 50 μM). […]
The XY-69 assay contained 4 μl of a serial dilution of ATP/ADP in assay buffer, 4 μl of PLC protein (concentration varied between PLC variants), and 12 μl of XY69 liposomes (final concentration in assay 1.2 mg/ml). A CLARIOstar plate reader (BMG Labtech) was used to measure the production of the fluorescent product. […] The initial linear rate of product generation was calculated and converted to a % inhibition when compared with the rate of PLC activity in the absence of nucleotide. […]

PLCγ1^D1165H = assay: PLC activity assay 1 (A1), PLCγ1 D1165H variant; assay type: biochemical, human
Experimental: The effect of nucleotide inhibition on PLC activity was measured using either a membrane-based assay with the fluorescent substrate (XY-69) incorporated into liposomes or using a small soluble substrate, Aldol 518 myo-inositol-1-phosphate (Aldol). Both methods utilised the same PLC assay buffer [20 mM Hepes-KOH, 70 mM KCl, 3 mM EGTA, 2.97 mM CaCl2, 2 mM TCEP and fatty acid-free bovine serum albumin (FAF-BSA; 50 μg/ml) (pH 7.5)]. Both assays were performed in low volume black 384-well plates (Greiner Bio-One), were composed of a final assay volume of 20 μl and were monitored in a Clariostar plate reader (BMG Labtech). […] The excitation and emission wavelengths were 588–15 and 642–20, respectively.
A CLARIOstar plate reader (BMG Labtech) was used to measure the production of the fluorescent product. The excitation and emission wavelengths were 485–15 and 520–20, respectively. Each experiment was performed in at least triplicate; in many cases, nine-fold replicates were generated. The enzyme progress curves were plotted for each concentration of nucleotide using Graphpad Prism software. The initial linear rate of product generation was calculated and converted to a % inhibition when compared with the rate of PLC activity in the absence of nucleotide. […]

Nc1ncnc2c1ncn2[C@@H]1O[C@H](COP(=O)(O)OP(=O)(O)O)[C@@H](O)[C@H]1O [ADP]
IC50 of PLCγ2^wt relative to PLCγ1^wt (fold higher) (PLCγ2^wt): 1.5- to 40 fold
IC50 relative to PLCγ1^wt (fold higher) (PLCγ1^D1165H): 5–7 fold
